Assay results reported in patent US12186353B2, “Method of reducing neuronal microtubule binding protein Tau (Tau) levels” (ADAERATA, LIMITED PARTNERSHIP, priority 2018, dated 2025).
Peptide text beside a SMILES is read from it. * marks the point of attachment. Cbz = O=C(OCc1ccccc1)*

B1: Numb-66: 66 kDa Numb isoform with long PTB domain and short PRR; human isoform 2 (SEQ ID NO: 3) (protein)
chain: MNKLRQSFRRKKDVYVPEASRPHQWQTDEEGVRTGKCSFPVKYLGHVEVDESRGMHICEDAVKRLKAERKFFKGFFGKTGKKAVKAVLWVSADGLRVVDEKTKDLIVDQTIEKVSFCAPDRNFDRAFSYICRDGTTRRWICHCFMAVKDTGERLSHAVGCAFAACLERKQKREKECGVTATFDASRTTFTREGSFRVTTATEQAEREEIMKQMQDAKKAETDKIVVGSSVAPGNTAPSPSSPTSPTSDATTSLEMNNPHAIPRRHAPIEQLARQGSFRGFPALSQKMSPFKRQLSLRINELPSTMQRKTDFPIKNAVPEVEGEAESISSLCSQITNAFSTPEDPFSSAPMTKPVTVVAPQSPTFQGTEWGQSSGAASPGLFQAGHRRTPSEADRWLEEVSKSVRAQQPQASAAPLQPVLQPPPPTAISQPASPFQGNAFLTSQPVPVGVVPALQPAFVPAQSYPVANGMPYPAPNVPVVGITPSQMVANVFGTAGHPQAAHPHQSPSLVRQQTFPHYEASSATTSPFFKPPAQHLNGSAAFNGVDDGRLASADRHTEVPTGTCPVDPFEAQWAALENKSKQRTNPSPTNPFSSDLQKTFEIEL
modifications: homo sapiens
B2: Numb-71: 71 kDa Numb isoform with short PTB domain and long PRR; human isoform 3 (SEQ ID NO: 6) (protein)
chain: MNKLRQSFRRKKDVYVPEASRPHQWQTDEEGVRTGKCSFPVKYLGHVEVDESRGMHICEDAVKRLKATGKKAVKAVLWVSADGLRVVDEKTKDLIVDQTIEKVSFCAPDRNFDRAFSYICRDGTTRRWICHCFMAVKDTGERLSHAVGCAFAACLERKQKREKECGVTATFDASRTTFTREGSFRVTTATEQAEREEIMKQMQDAKKAETDKIVVGSSVAPGNTAPSPSSPTSPTSDATTSLEMNNPHAIPRRHAPIEQLARQGSFRGFPALSQKMSPFKRQLSLRINELPSTMQRKTDFPIKNAVPEVEGEAESISSLCSQITNAFSTPEDPFSSAPMTKPVTVVAPQSPTFQANGTDSAFHVLAKPAHTALAPVAMPVRETNPWAHAPDAANKEIAATCSGTEWGQSSGAASPGLFQAGHRRTPSEADRWLEEVSKSVRAQQPQASAAPLQPVLQPPPPTAISQPASPFQGNAFLTSQPVPVGVVPALQPAFVPAQSYPVANGMPYPAPNVPVVGITPSQMVANVFGTAGHPQAAHPHQSPSLVRQQTFPHYEASSATTSPFFKPPAQHLNGSAAFNGVDDGRLASADRHTEVPTGTCPVDPFEAQWAALENKSKQRTNPSPTNPFSSDLQKTFEIEL
modifications: homo sapiens
B3: Numb-65: 65 kDa Numb isoform with short PTB domain and short PRR; human isoform 4 (SEQ ID NO: 7) (protein)
chain: MNKLRQSFRRKKDVYVPEASRPHQWQTDEEGVRTGKCSFPVKYLGHVEVDESRGMHICEDAVKRLKATGKKAVKAVLWVSADGLRVVDEKTKDLIVDQTIEKVSFCAPDRNFDRAFSYICRDGTTRRWICHCFMAVKDTGERLSHAVGCAFAACLERKQKREKECGVTATFDASRTTFTREGSFRVTTATEQAEREEIMKQMQDAKKAETDKIVVGSSVAPGNTAPSPSSPTSPTSDATTSLEMNNPHAIPRRHAPIEQLARQGSFRGFPALSQKMSPFKRQLSLRINELPSTMQRKTDFPIKNAVPEVEGEAESISSLCSQITNAFSTPEDPFSSAPMTKPVTVVAPQSPTFQGTEWGQSSGAASPGLFQAGHRRTPSEADRWLEEVSKSVRAQQPQASAAPLQPVLQPPPPTAISQPASPFQGNAFLTSQPVPVGVVPALQPAFVPAQSYPVANGMPYPAPNVPVVGITPSQMVANVFGTAGHPQAAHPHQSPSLVRQQTFPHYEASSATTSPFFKPPAQHLNGSAAFNGVDDGRLASADRHTEVPTGTCPVDPFEAQWAALENKSKQRTNPSPTNPFSSDLQKTFEIEL
modifications: homo sapiens

How the values were obtained:
Tau::GFP fusion protein = test: Intracellular Tau::GFP fluorescence in stable inducible HEK293 cells with proteasome or lysosome inhibitor; type: cell-based; settings: inhibitor 25 uM for 4 h before fixation
Procedure: FIG. 7A Stable inducible cell line HEK293 that express a Tau::GFP fusion protein was transfected with Control Myc or Numb72::Myc, and the Tau::GFP expression was activated by adding Doxycycline 6 h later. The cells were fixed 48 h later and stained for Myc. FIG. 7B. The mean intensity (±SEM) of intracellular Tau::GFP fluorescence in transfected cells was quantified. Cells were treated with vehicle, MG132 (a proteasome inhibitor, 25 uM) or Chloroquine (a lysosome inhibitor, 25 uM) for 4 h before fixation and Myc staining. Quantification represents mean intensity +/− SEM, *p≤0.01; Anova 1-way test.
The potential role of the proteasome and of the lysosome on the ability of Numb to reduce Tau levels was assessed. A stable inducible cell line (HEK293) expressing a Tau::GFP fusion protein was transfected with
Numb72 or a control empty vector. The intracellular Tau::GFP levels was compared when the cells were treated with a proteasome inhibitor (MG132), a lysosome inhibitor (Chloroquine) or a control (vehicle). […] (FIGS. 7A-B).

RGCs = test: RGC survival after intravitreal NMDA in Numb cKO and control mice; type: in vivo, mouse; settings: sublethal doses of NMDA in the eyes, 3 days later, Numb cKO mice compared to control
Procedure: FIGS. 5A-C: Down regulation of Tau in Numb cKO RGCs rescues survival to control levels after NMDA-mediated excitotoxicity. FIG. 5A. Immunostaining for Brn3b on retina flat mounts in control and cKO 5-month-old mice 3 days after injection of saline (left panels, FIG. 5A) or NMDA (10 mM; right panels FIG. 5A). Images were taken in the ganglion cell layer. FIGS. 5B and C. Quantification of the number of Brn3b+RGCs per mm^2 in control and cKO mice 3 days after intravitreal injection of saline (FIG. 5B) or NMDA (FIG. 5C). Error bars represent SEM, * p≤0.05, n.s. non-significant; Student's t test. FIG. 5D. Analysis of Tau levels by western blot in retinal extract 24 h, 48 h or 72 h after injection of siRNA against Tau in the eye. […] FIG. 5E. […] Quantification of number of Brn3b RGC per mm^2 in control and cKO mice 72 h after injection. […]
RGCs survival was assessed by counting Brn3b-positive cells on retina flat mounts the within four square (212 um×212 um) areas around the optic nerve disc, and averaging this number per retina and calculate with the area by multiplied by the total area of square. Cell type quantification in retinal section were made by averaging the total number of positive cells for specific markers in a […] region of the central and peripheral retina on 4 different retinal sections per animal. […]

Tau = test: Western blot of Tau fusion protein levels in HEK293T cells co-expressing Numb isoforms; type: cell-based; settings: 48 hours after transfection
Excerpt: FIGS. 6A-I: Isoform Numb-72 interacts with Tau and regulates Tau level. FIG. 6A. Schematic of 4 Numb isoforms, differing with the presence or the absence of an insertion (arrowhead) in PTB domain arrowhead, and the presence or the absence of an insertion in the proline-rich region (PRR). FIG. 6B. Coimmunoprecipitation of Tau and 4 isoforms of Numb in HEK293 cells. Each Numb isoform was transfected in HEK293T cells together with a flag-tagged version of Tau and immunoprecipitation was perform 24 hours later with a flag antibody and blotted for Numb. […] FIG. 6C. Detection of Tau::GFP level in presence of 4 isoforms of Numb by western blot in HEK293. All the Numb isoforms were transfected with a Tau::GFP fusion protein in HEK293T cells and the levels of Tau::GFP was analysed by western blot 48 hours after transfection. FIG. 6D. Schematic representation of DNA construct of a human-medulloblastoma-derived cell line (DAOY) expressing human Tau fused with EGFP (Lasagna-Reeves et al., 2016). Additionally, this cell line expresses DsRed upstream of an internal ribosomal entry site (IRES), which is translated independently of the Tau-GFP protein. DsRed-IRES-Tau::EGFP expressing cells were used to assess the abundance of Tau by monitoring the Tau-GFP to DsRed fluorescence ratio. FIG. 6E. DsRed and Tau::EGF expression in Daoy cells, transfected with Myc only construct. FIGS. 6F-J. Fluorescence-activated cell sorting (FACs) analysis of the 4 Numb isoforms affected 3 days after transfection on ratio DsRed versus DsRed and GFP-positives cells compared to the control (Myc-Tag). FIG. 6K Quantification represents fold change for 5 experiments, +/− SEM, **p≤0.001; n.s. non-significant Anova 1-way test.
Numb72::Myc. HEK293T cells were transfected with Jet Prime using the following constructs Tau::Flag, Tau::GFP, Numb65, Numb66, Numb71 and Numb72.
Cells were harvested, and lysed in a NP-40 buffer (50 mm TRIS, pH 8.0, 150 mm NaCl, 1.0% NP-40 with Complete Protease Inhibitor Cocktail (Roche)). For immunoblotting, 40 μg of protein samples for in vivo blot and 10 ug for in vitro blot were loaded on a 10% acrylamide SDS-PAGE gels for separation by electrophoresis migration and then transferred onto PVDF membranes using transblot machine (Millipore). […] The primary antibody was detected with an HRP-conjugated goat anti-rabbit (1:10,000; Jackson Immunoresearch) in 0.5% dry milk in TBST. […]
To determine whether increasing the levels of Numb could affect the levels of Tau, the inventors co-expressed all isoforms of Numb together with a Tau::Venus fusion protein in HEK293T cells and analyzed the levels of Tau::Venus by western blot 48 hours after transfection.

Molecule | effect of inhibitor on the ability of Numb72 to reduce Tau::GFP levels (Tau::GFP fusion protein) | levels of Tau::Venus by western blot (Tau) | also measured
CC(C)C[C@@H](C=O)NC(=O)[C@H](CC(C)C)NC(=O)[C@H](CC(C)C)NC(=O)OCc1ccccc1 [MG132] (Cbz-Leu-Leu-Leu-aldehyde) | neither the proteasome inhibitor nor the lysosome inhibitor abolished the ability of Numb72 to reduce Tau::GFP levels |  | 
CN[C@H](CC(=O)O)C(=O)O [NMDA, N-methyl-D-aspartate] |  |  | RGC numbers (RGCs): two-fold reduction of RGC numbers
CCN(CC)CCCC(C)Nc1ccnc2cc(Cl)ccc12 (stereo not drawn) [Chloroquine] | neither the proteasome inhibitor nor the lysosome inhibitor abolished the ability of Numb72 to reduce Tau::GFP levels |  | 
B1 |  | significantly reduced the levels of Tau | 
B2 |  | did not affect Tau levels | 
B3 |  | did not affect Tau levels | 
